Laboratory results published in patent publication US7582611B2, “Motilide compounds” (Pfizer Inc., priority 2005, dated 2009).
≈ marks a conversion by molar mass, not a printed value. Where two headings read alike, the source gives them in different places.

What was measured:
Motilin Receptor = target: T1, Motilin Receptor (Oryctolagus cuniculus, UniProt G1T803); test: Tissue based assay for motilin agonist potency (rabbit duodenum contractility); format: cell-based
T1 construct: strips of longitudinal smooth muscle were sliced from the segments; from tissue; host or cells: rabbit duodenum longitudinal smooth muscle strips
T1 sequence (G1T803 1-400): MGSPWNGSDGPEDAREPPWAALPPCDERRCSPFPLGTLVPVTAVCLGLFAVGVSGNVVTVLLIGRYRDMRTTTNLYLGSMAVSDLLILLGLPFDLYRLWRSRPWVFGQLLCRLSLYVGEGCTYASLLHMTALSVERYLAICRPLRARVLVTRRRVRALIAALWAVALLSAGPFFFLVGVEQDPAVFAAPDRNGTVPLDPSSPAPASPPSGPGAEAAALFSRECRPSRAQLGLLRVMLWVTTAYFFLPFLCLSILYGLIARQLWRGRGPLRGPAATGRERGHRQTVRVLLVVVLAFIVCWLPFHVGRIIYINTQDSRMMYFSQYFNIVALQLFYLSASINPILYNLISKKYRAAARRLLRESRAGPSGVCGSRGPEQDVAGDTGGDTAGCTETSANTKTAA
Procedure, shortened: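 Longitudinal smooth-muscle strips of rabbit duodenum, mucosa removed, in oxygenated Krebs at 37 °C under 1.5 g tension; auxotonic contractions. Cumulative doses at ~2 min intervals, then 1 μM carbachol; responses minus basal tension, normalized to carbachol, fitted to R=(Rmax·C)/(EC50+C) for EC50.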

[1] = test system: Streptococcus pneumoniae ATCC 6301; test: Evaluation of antibacterial activity (MIC, serial dilutions on 96-well microtiter plates); format: cell-based; conditions: ATCC6301, read-out: Antibacterial Activity (MIC, μg/mL)
[2] = rabbit duodenum strips, contraction normalized to 1 μM carbachol, read-out: Motilin Receptor Agonist Activity (EC50)

| Structure (SMILES) | EC50 (Motilin Receptor; [2]) | MIC [1] | EC50 (Motilin Receptor) |
| --- | --- | --- | --- |
| CCNC(=O)NCCO[C@@H]1[C@H](C)[C@@H](O)[C@](C)(O)[C@@H](CC)OC(=O)[C@H](C)[C@@H](O[C@H]2C[C@@](C)(OC)[C@@H](O)[C@H](C)O2)[C@H](C)[C@@H](O[C@@H]2O[C@H](C)C[C@H](N(C)C(C)C)[C@H]2O)[C@](C)(O)C[C@H]1C [Compound A-54] | 100 nM | > 128 µg/mL | – |
| CC[C@H]1OC(=O)[C@H](C)[C@@H](O[C@H]2C[C@@](C)(OC)[C@@H](O)[C@H](C)O2)[C@H](C)[C@@H](O[C@@H]2O[C@H](C)C[C@H](N(C)C(C)C)[C@H]2O)[C@](C)(O)C[C@@H](C)[C@H](OCCF)[C@H](C)[C@@H](O)[C@]1(C)O [Compound A-49] | – | 128 µg/mL (≈ 158 µM) | 140 nM |
| CC[C@H]1OC(=O)[C@H](C)[C@@H](O[C@H]2C[C@@](C)(OC)[C@@H](O)[C@H](C)O2)[C@H](C)[C@@H](O[C@@H]2O[C@H](C)C[C@H](N(C)C(C)C)[C@H]2O)[C@](C)(O)C[C@@H](C)[C@H](OCC(=O)NCC(F)(F)F)[C@H](C)[C@@H](O)[C@]1(C)O [Compound A-52] | 160 nM | 128 µg/mL (≈ 142 µM) | – |
| CCOC(=O)CO[C@@H]1[C@H](C)[C@@H](O)[C@](C)(O)[C@@H](CC)OC(=O)[C@H](C)[C@@H](O[C@H]2C[C@@](C)(OC)[C@@H](O)[C@H](C)O2)[C@H](C)[C@@H](O[C@@H]2O[C@H](C)C[C@H](N(C)C(C)C)[C@H]2O)[C@](C)(O)C[C@H]1C [Compound A-8] | 88 nM | 128 µg/mL (≈ 151 µM) | – |
| CCC(=O)O[C@@H]1[C@H](C)[C@@H](O)[C@](C)(O)[C@@H](CC)OC(=O)[C@H](C)[C@@H](O[C@H]2C[C@@](C)(OC)[C@@H](O)[C@H](C)O2)[C@H](C)[C@@H](O[C@@H]2O[C@H](C)C[C@H](N(C)C3CCC3)[C@H]2O)[C@](C)(O)C[C@H]1C [Compound A-25] | 1200 nM | > 128 µg/mL | – |
| CC[C@H]1OC(=O)[C@H](C)[C@@H](O[C@H]2C[C@@](C)(OC)[C@@H](O)[C@H](C)O2)[C@H](C)[C@@H](O[C@@H]2O[C@H](C)C[C@H](N(C)C(C)C)[C@H]2O)[C@](C)(O)C[C@@H](C)[C@H](OCC(=O)NCCN2CCOCC2)[C@H](C)[C@@H](O)[C@]1(C)O [Compound A-48] | 140 nM | 64 µg/mL (≈ 68.5 µM) | – |

The next lines start with results.

| EC50 (Motilin Receptor; [2]) | MIC [1] | Structure (SMILES) | EC50 (Motilin Receptor) |
| --- | --- | --- | --- |
| 100 nM | 64 µg/mL (≈ 72.8 µM) | CCOC(=O)NCCO[C@@H]1[C@H](C)[C@@H](O)[C@](C)(O)[C@@H](CC)OC(=O)[C@H](C)[C@@H](O[C@H]2C[C@@](C)(OC)[C@@H](O)[C@H](C)O2)[C@H](C)[C@@H](O[C@@H]2O[C@H](C)C[C@H](N(C)C(C)C)[C@H]2O)[C@](C)(O)C[C@H]1C [Compound A-64] | – |
| 290 nM | > 128 µg/mL | CC[C@H]1OC(=O)[C@H](C)[C@@H](O[C@H]2C[C@@](C)(OC)[C@@H](O)[C@H](C)O2)[C@H](C)[C@@H](O[C@@H]2O[C@H](C)C[C@H](N(C)C(C)C)[C@H]2O)[C@](C)(O)C[C@@H](C)[C@H](OC(=O)N(C)C)[C@H](C)[C@@H](O)[C@H]1C [Compound A-75] | – |
| 210 nM | 128 µg/mL (≈ 141 µM) | CCCNC(=S)NCCO[C@@H]1[C@H](C)[C@@H](O)[C@](C)(O)[C@@H](CC)OC(=O)[C@H](C)[C@@H](O[C@H]2C[C@@](C)(OC)[C@@H](O)[C@H](C)O2)[C@H](C)[C@@H](O[C@@H]2O[C@H](C)C[C@H](N(C)C(C)C)[C@H]2O)[C@](C)(O)C[C@H]1C [Compound A-57] | – |
